The source of these data is patent publication US5182295A, “Insecticidal benzofuran derivatives” (Roussel Uclaf, priority 1990, dated 1993).

≈ marks a conversion by molar mass, not a printed value. Where two headings read alike, the source gives them in different places.

What all share (format): in vivo
Experiment [1] concerns Spodoptera Littoralis (L3 stage larvae). The experiment is described as follows: whole plant or invertebrate. To be noted: 168 h, read-out: LC50, Spodoptera. Here is the method:
L3 stage SPODOPTERA LITTORALIS larvae were used and the operation was carried out at 22° C. at relative humidity conditions of 50%. Petri dishes were used containing a damp circular piece of filter paper and in each dish, two bean plant leaves were placed and treated with hydroacetonic solution (50-50) containing the product under test. The dead larvae were counted at the end of 7 days and the concentration LC50 were expressed in ppm.

A further experiment relates to Tetranychus Urticae. Description: Acaricide study on Tetranychus Urticae. As to conditions: 72 h, read-out: LC50, Tetranychus. Here is the method: Bean plants were used comprising 2 leaves infested with 30 females of Tetranychus Urticae per leaf and put under an aerated hood under a lighted ceiling which was constantly on. The plants were treated with a Fisher gun with 4 ml of toxic solution per plant of a mixture with an equal volume of water and acetone. After leaving to dry for half an hour the infestation was proceeded with and mortality checks were carried out at the end of 3 days. The LC50 dose was determined and the results are set out in the table below, taking account of the following values: […]

The subject of a further experiment is Plasmopara viticola. Description: Fungicide activity: tests on Plasmopara viticola (vine plants, leaf spray). As to conditions: 100 ppm of active material, relative to non-treated control; for % of effectiveness on plasmopara viticola, Grenache vine: ten days after contamination. As to the method:
Young vine plants from cuttings (Grenache N variety, clone 70) were cultivated in a greenhouse (daytime temperature: 30° C., night-time temperature: 25° C.) on an earth/compost/sand mixture, (1/3-1/3-1/3). Two days before the test, the plants were moved into a culture chamber with the same temperature conditions and humidity 60% in the day, 80% at night. The product was dissolved in "matrix A" at a concentration of 100 ppm just before use. The treatment took place by spraying the solution on the leaves until saturation Contamination was carried out with a suspension of zoospores of Plasmopara viticola taken immediately before the test using 50,000 zoospores per ml. Drops of suspension (20 micro-liters) were deposited on the abaxial surface of the leaves. The plants were then kept for 24 hours in an atmosphere saturated with water-vapour. Then, the atmosphere was returned to the humidity of the culture chamber (60% in the day, 80% at night). The reading was taken ten days after contamination by measuring the development of clusters of sporangiophores on the abaxial surface of the leaves. The effectiveness of the product was calculated relative to a non-treated control. The same type of test was carried out on a Chardonnay vine.
The results obtained in % of effectiveness on plasmopara viticola at 100 ppm of active material were as follows: […]

The next experiment concerns Musca Domestica (Fly). Description: Insecticide activity: lethal effect on Musca Domestica (topical application). To be noted: 6-day-old female flies, topical application of acetone solution on dorsal thorax, 22° C. As to the method: 6-day-old female flies weighing 18 to 20 mg were used and the operation was carried out at 22° C. at relative humidity conditions of 50%. The products were administered by topical application of an acetone solution of 1 g/l on the dorsal thorax of the insects. The LC50 dose was determined and was expressed in ppm.

For another experiment, the system named is Aphis Cracivora. Description: Insecticide activity: activity on Aphis Cracivora. As to conditions: female apter on sprayed broad bean leaves, 24 hours. As to the method: 2 ml of water acetone solution (50/50) was sprayed on broad bean leaves (vicia fabae) until the leaves were running with solution. After drying, 15 female apter of Aphis cracivora were deposited on the leaves and the mixture was kept on the damp filter paper inside a Petri dish. 24 hours after the start of contact, the number of dead insects was determined and the LC50 dose expressed in ppm were determined.

Where [2] appears, read: L3 larvae, contact and ingestion, treated bean leaves, 7 days, 22° C.
The mark [3] stands for this setting: females on treated bean plants, 3 days.

Take `CO/C=C(\C(=O)OC)c1cccc2cc(-c3ccc(OC)cc3)oc12` [1 (Z)]: the values for the LC50 (in experiment [1] (setting [2]); in the experiment with Tetranychus Urticae (setting [3])) were 250 to 1000 µg/mL (≈ 739 to 2960 µM) and less than 250 µg/mL, respectively. The “% of effectiveness on plasmopara viticola, Grenache vine” value (“% of effectiveness … Grenache vine” for short) in the experiment with Plasmopara viticola is recorded as 100%.
For the compound `CO/C=C(/C(=O)OC)c1cccc2cc(-c3cccc(OC)c3)oc12` [2 (E)], in the experiment with Plasmopara viticola, the “% of effectiveness on plasmopara viticola, Chardonnay vine” value (from here on “% of effectiveness … Chardonnay vine”) was 100% and the “% of effectiveness … Grenache vine” value stood at 100%.
With `CO/C=C(/C(=O)OC)c1cccc2cc(-c3ccccc3)oc12` [3 (E)], in experiment [1] (setting [2]), the 50% lethal concentration (LC50) is 250 to 1000 µg/mL (≈ 811 to 3240 µM).
Regarding `CO/C=C(\C(=O)OC)c1cccc2cc(-c3ccccc3)oc12` [3 (Z)], the LC50 in experiment [1] (setting [2]) fell in the range of 250 to 1000 µg/mL (≈ 811 to 3240 µM).
For the compound `CO/C=C(/C(=O)OC)c1cccc2cc(-c3ccccc3Cl)oc12` [10 (E)], in the experiment with Plasmopara viticola, the “% of effectiveness … Chardonnay vine” value was 90% and the “% of effectiveness … Grenache vine” value stood at 100%.
`CO/C=C(/C(=O)OC)c1cccc2cc(-c3ccc(Cl)cc3)oc12` [12 (E)]: in the experiment with Musca Domestica (Fly), the median lethal concentration (LC50) was less than 250 µg/mL. Moreover, in the experiment with Tetranychus Urticae (setting [3]), the 50% lethal concentration (LC50) was less than 250 µg/mL. In addition, in the experiment with Plasmopara viticola, the “% of effectiveness … Chardonnay vine” value is 100% and the “% of effectiveness … Grenache vine” value is listed as 100%.
Turning to `CO/C=C(/C(=O)OC)c1cccc2cc(-c3ccc(Br)c(C(F)(F)F)c3)oc12` [14 (E), Methyl α[(E)methoxymethylene1-2-4-bromo-3-(trifluoromethyl)-phenyl]benzofuran acetate], the 50% lethal concentration (LC50) in the experiment on Musca Domestica (Fly) was less than 250 µg/mL; in experiment [1] (setting [2]) it was 250 to 1000 µg/mL; in the experiment on Tetranychus Urticae (setting [3]), less than 250 µg/mL.
For the compound `CO/C=C(/C(=O)OC)c1cccc2cc(-c3ccc(Cl)c(OC)c3)oc12` [15 (E)], the 50% lethal concentration (LC50) in the experiment on Musca Domestica (Fly) was less than 250 µg/mL; in experiment [1] (setting [2]), 250 to 1000 µg/mL (≈ 671 to 2680 µM); in the experiment with Aphis Cracivora, less than 250 µg/mL; in the experiment with Tetranychus Urticae (setting [3]), 250 to 1000 µg/mL (≈ 671 to 2680 µM).
With `CO/C=C(/C(=O)OC)c1cccc2cc(-c3csc(C(C)C)n3)oc12` [16 (E), Methyl α-(E)methoxymethylene1-7-[2-[4-(2-isopropylthiazolyl)-benzofuranyl]-acetate], in the experiment on Tetranychus Urticae (setting [3]), the LC50 was less than 250 µg/mL.
`CO/C=C(/C(=O)OC)c1cccc2cc(-c3ccc4c(c3)OCO4)oc12` [17 (E), Methyl α[(E)-methoxymethylene1-2-(3,4-methylenedioxy)-phenyl-7-benzofuran acetate]: the median lethal concentration (LC50) (in the experiment on Musca Domestica (Fly); in experiment [1] (setting [2])) was less than 250 µg/mL each time.
As for `CCCCc1cc2cccc(/C(=C\OC)C(=O)OC)c2o1` [18 (E), Methyl α[(E)-methoxymethylene1-2-butyl-7-benzofuran acetate], the 50% lethal concentration (LC50) in the experiment on Aphis Cracivora and in the experiment on Tetranychus Urticae (setting [3]) was less than 250 µg/mL each time.
As for `CO/C=C(/C(=O)OC)c1cccc2cc(-c3csc(-c4ccc(OC(F)(F)F)cc4)n3)oc12` [19 (E), Methyl α[(E)-methoxymethylene]-2-[2-[4-(trifluoromethyxy)-pehny]-4-thiazolyl]-7-benzofuran acette], the LC50 in experiment [1] (setting [2]) was less than 250 µg/mL.
On to `CO/C=C(/C(=O)OC)c1cccc2cc(-c3cccc(Oc4ccccc4)c3)oc12` [24 (E), Methyl α-[(E)-methoxymethylene]-2-(3-phenoxyphenyl) -7-benzofuran acetate], for which the LC50 in the experiment on Musca Domestica (Fly) was less than 250 µg/mL.
On the same count and under the same terms, then `CO/C=C(/C(=O)OC)c1cccc2cc(-c3ccc(Oc4ccccc4)cc3)oc12` [25 (E), Methyl α-[(E)-methoxymethylene]-2-(4-phenoxyphenyl) -7-benzofuran acetate], with less than 250 µg/mL.
On to `CO/C=C(/C(=O)OC)c1cccc2cc(-c3ccc(OC)cc3)oc12` [Example 1 (E), Methyl α-[(E)-methoxymethylene]-2-(4-methoxy-phenyl)-7-benzofuranacetate], for which the values for the LC50 (in experiment [1]; in the experiment with Tetranychus Urticae) were 250 to 1000 µg/mL (≈ 739 to 2960 µM) and less than 250 µg/mL, respectively. Also, in the experiment with Plasmopara viticola, the “% of effectiveness … Grenache vine” value is given as 90%.
Turning to `CO/C=C(/C(=O)OC)c1cccc2cc(-c3cccc(Cl)c3)oc12` [Example 11 (E)], the LC50 in experiment [1] (setting [2]) is 250 to 1000 µg/mL (≈ 729 to 2920 µM). Further, in the experiment with Plasmopara viticola, the “% of effectiveness … Chardonnay vine” value came out at 100% and the “% of effectiveness … Grenache vine” value was determined as 100%.

What is called LC50 is the concentration lethal to half of the exposed cells or organisms.
